Measured values from publication PMC2248166, “Quantitative peptide binding motifs for 19 human and mouse MHC class I molecules derived using positional scanning combinatorial peptide libraries” (Immunome Research, 2008).

Tests used:
Type in all cases: binding
HLA A*3001 = HLA A*3001 (Homo sapiens, UniProt P04439, D140H/D185E/E176W/F33S/G80R/H175R/K168Q/R138E/R41S); assay: biochemical
HLA A*3201 = HLA A*3201 (Homo sapiens, UniProt P04439, A270S/D101S/D185E/E176V/E277Q/F133L/G103R/G107R/G231S/H175R/I121M/I218V/I322F/K168Q/L105A/L300P/L318F/M331R/P208A/P217A/Q94H/R106L/R138Q/S129P/T104I/T323A/T345S/V100E/V321M/V358M); assay: biochemical
HLA A*6802 = HLA A*6802 (Homo sapiens, UniProt P04439, A269V/D140Y/D185E/E176V/E277Q/E87N/F33Y/G231S/I121R/I166T/I218V/L180W/L300P/L318F/N151K/P208A/P217A/Q86R/R138H/R169H/S129P/T345S/V36M)
HLA B*0801 = HLA B*0801 (Homo sapiens, UniProt P01889, A93T/A95T/D138N/E176V/E187T/K202T/Q94N/R180D/S35A/V36M/Y33D/Y91F); assay: biochemical
HLA B*1501 = HLA B*1501 (Homo sapiens, UniProt P01889, A329T/A93T/A95T/C349S/D201E/D98Y/E187L/E204Q/E69M/E70A/K202T/N87E/Q94N/R155S/R180W/S121R/S35A/S48A/V306I/V36M/Y140S/Y91S); assay: biochemical
HLA B*1503 = HLA B*1503 (Homo sapiens, UniProt P01889, A329T/A93T/A95T/C349S/D201E/D98Y/E187L/E204Q/K202T/N87E/Q94N/R155S/R180L/S121R/S35A/V306I/V36M/Y140S/Y91S); assay: biochemical
HLA B*3501 = HLA B*3501 (Homo sapiens, UniProt P01889, A329T/A93T/A95T/C349S/D201E/D98Y/E176V/E187L/E204Q/E69T/I218V/K202T/L119I/Q94N/R155S/R180L/S121R/S35A/S48A/T118I/V127L/V306I/V36M/Y140S/Y91F)
HLA B*5101 = HLA B*5101 (Homo sapiens, UniProt P01889, A329T/A93T/A95T/C349S/D138N/D201E/D98Y/E187L/E204Q/E69T/G107R/I218V/K202T/L105A/L119W/N104I/Q94N/R106L/R155S/R180L/S101N/S121T/S35A/S48A/V306I/V36M/Y195H/Y91F)
HLA B*5301 = HLA B*5301 (Homo sapiens, UniProt P01889, A329T/A93T/A95T/C349S/D201E/D98Y/E176V/E187L/E204Q/E69T/G107R/I218V/K202T/L105A/L119I/N104I/Q94N/R106L/R155S/R180L/S101N/S121R/S35A/S48A/T118I/V127L/V306I/V36M/Y140S/Y91F)
HLA B*5401 = HLA B*5401 (Homo sapiens, UniProt P01889, A329T/C349S/D138N/D201E/E176V/E187T/E204Q/E69G/I76V/K202T/L119W/R155S/R180L/S121T/S35A/S48A/V127L/V306I/V36M/Y140L)
HLA B*5801 = HLA B*5801 (Homo sapiens, UniProt P01889, A329T/C349S/D201E/D98Y/E176V/E187L/E204Q/E69T/G107R/I218V/I90N/K202T/L105A/L119I/N104I/N87E/Q89R/Q94S/R106L/R155S/R180L/R86G/S101N/S121R/S35A/S48A/T118I/V127L/V306I/V36M/Y140S/Y91M)
HLA B*5802 = HLA B*5802 (Homo sapiens, UniProt P01889, A329T/C349S/D201E/D98Y/E176V/E187L/E204Q/E69T/G107R/I218V/I90N/K202T/L105A/N104I/N87E/Q89R/Q94S/R106L/R155S/R180L/R86G/S101N/S121W/S35A/S48A/V127L/V306I/V36M/Y140S/Y91M)
H-2 D^b = H-2 D^b (Mus musculus, UniProt P01899)
Chain of H-2 D^b (P01887 21-119): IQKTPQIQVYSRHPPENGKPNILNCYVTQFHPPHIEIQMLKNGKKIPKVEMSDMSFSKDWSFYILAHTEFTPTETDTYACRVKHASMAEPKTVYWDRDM
Chain of H-2 D^b (P01899 25-362): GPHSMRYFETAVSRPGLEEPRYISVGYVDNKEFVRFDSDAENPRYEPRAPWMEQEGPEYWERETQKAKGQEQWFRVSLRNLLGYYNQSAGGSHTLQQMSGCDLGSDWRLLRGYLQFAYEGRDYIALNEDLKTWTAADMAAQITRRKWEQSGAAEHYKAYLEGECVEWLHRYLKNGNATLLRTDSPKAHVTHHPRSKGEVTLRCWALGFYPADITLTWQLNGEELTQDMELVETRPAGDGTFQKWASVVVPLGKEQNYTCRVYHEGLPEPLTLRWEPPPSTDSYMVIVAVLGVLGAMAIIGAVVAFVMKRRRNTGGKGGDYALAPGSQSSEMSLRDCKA

H-2 D^d = H-2 D^d (Mus musculus, UniProt P01900)
Chain of H-2 D^d (P01900 whole entry, looked up): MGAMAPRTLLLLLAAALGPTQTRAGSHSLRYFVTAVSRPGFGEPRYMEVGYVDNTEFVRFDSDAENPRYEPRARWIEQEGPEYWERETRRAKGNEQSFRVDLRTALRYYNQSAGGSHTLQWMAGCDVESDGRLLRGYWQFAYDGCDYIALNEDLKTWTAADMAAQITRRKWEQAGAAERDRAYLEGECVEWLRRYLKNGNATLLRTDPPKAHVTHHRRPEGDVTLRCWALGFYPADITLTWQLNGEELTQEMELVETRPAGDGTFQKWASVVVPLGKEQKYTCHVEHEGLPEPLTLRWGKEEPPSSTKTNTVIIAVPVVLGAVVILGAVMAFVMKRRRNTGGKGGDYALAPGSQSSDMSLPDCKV

H-2 K^d = H-2 K^d (Mus musculus, UniProt P01902)
Chain of H-2 K^d (P01887 21-119): as the sequence (P01887 21-119) above
Chain of H-2 K^d (P01902 22-368): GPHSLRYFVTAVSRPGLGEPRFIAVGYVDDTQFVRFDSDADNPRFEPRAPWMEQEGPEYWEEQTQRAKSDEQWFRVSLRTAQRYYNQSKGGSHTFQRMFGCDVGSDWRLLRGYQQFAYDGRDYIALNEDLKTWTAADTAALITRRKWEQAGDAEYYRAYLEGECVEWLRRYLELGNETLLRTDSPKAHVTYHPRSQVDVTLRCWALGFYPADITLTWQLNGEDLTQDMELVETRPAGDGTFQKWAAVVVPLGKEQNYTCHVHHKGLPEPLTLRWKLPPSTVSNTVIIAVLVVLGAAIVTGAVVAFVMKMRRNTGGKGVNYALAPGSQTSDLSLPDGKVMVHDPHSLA

H-2 K^k = H-2 K^k (Mus musculus, UniProt P04223)
Chain of H-2 K^k (P01887 21-119): as the sequence (P01887 21-119) above
Chain of H-2 K^k (P04223 22-369): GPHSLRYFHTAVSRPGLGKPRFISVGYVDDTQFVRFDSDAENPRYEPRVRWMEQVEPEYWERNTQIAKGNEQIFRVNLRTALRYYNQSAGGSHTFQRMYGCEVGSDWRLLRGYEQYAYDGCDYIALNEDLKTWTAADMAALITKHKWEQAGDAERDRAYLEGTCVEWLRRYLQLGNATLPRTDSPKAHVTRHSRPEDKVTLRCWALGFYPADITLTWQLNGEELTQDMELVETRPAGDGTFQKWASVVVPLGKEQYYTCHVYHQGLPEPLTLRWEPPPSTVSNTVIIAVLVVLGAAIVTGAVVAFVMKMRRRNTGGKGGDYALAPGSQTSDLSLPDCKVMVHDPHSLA

| Sequence | Normalized average relative binding affinity(ARB) (HLA A*3001) | Normalized average relative binding affinity(ARB) (HLA A*3201) | Normalized average relative binding affinity(ARB) (HLA A*6802) | Normalized average relative binding affinity(ARB) (HLA B*0801) | Normalized average relative binding affinity(ARB) (HLA B*1501) | Normalized average relative binding affinity(ARB) (HLA B*1503) | Normalized average relative binding affinity(ARB) (HLA B*3501) | Normalized average relative binding affinity(ARB) (HLA B*5101) | Normalized average relative binding affinity(ARB) (HLA B*5301) | Normalized average relative binding affinity(ARB) (HLA B*5401) | Normalized average relative binding affinity(ARB) (HLA B*5801) | Normalized average relative binding affinity(ARB) (HLA B*5802) | Normalized average relative binding affinity(ARB) (H-2 D^b) | Normalized average relative binding affinity(ARB) (H-2 D^d) | Normalized average relative binding affinity(ARB) (H-2 K^d) | Normalized average relative binding affinity(ARB) (H-2 K^k) |
| --- | --- | --- | --- | --- | --- | --- | --- | --- | --- | --- | --- | --- | --- | --- | --- | --- |
| XXXXHXXXX [3064.0087] | 0.14 | 0.14 | 0.46 | 0.65 | 0.66 | 0.32 | 0.19 | 0.35 | 0.091 | 0.19 | 0.21 | 0.74 | 0.066 | 0.64 | 0.064 | 0.022 |
| XXXXIXXXX [3064.0088] | 0.20 | 0.59 | 0.88 | 0.080 | 0.32 | 0.12 | 0.26 | 0.33 | 0.30 | 0.13 | 0.34 | 0.79 | 0.020 | 0.28 | 0.19 | 0.24 |
| XXXXKXXXX [3064.0089] | 0.16 | 0.16 | 0.14 | 0.47 | 0.31 | 0.13 | 0.12 | 0.29 | 0.042 | 0.049 | 0.11 | 0.58 | 0.032 | 0.44 | 0.011 | 0.091 |
| XXXXLXXXX [3064.0090] | 0.14 | 0.57 | 0.43 | 0.062 | 0.69 | 0.090 | 0.23 | 0.30 | 0.18 | 0.15 | 0.25 | 0.063 | 0.10 | 0.28 | 0.18 | 0.11 |
| XXXXMXXXX [3064.0091] | 0.33 | 0.31 | 0.78 | 0.078 | 0.41 | 0.064 | 0.98 | 0.45 | 0.38 | 0.72 | 0.092 | 0.42 | 0.086 | 0.19 | 0.60 | 0.24 |
| XXXXNXXXX [3064.0092] | 0.12 | 0.16 | 0.30 | 0.037 | 0.56 | 0.26 | 1.0 | 0.40 | 0.17 | 0.34 | 0.13 | 0.31 | 1.0 | 0.19 | 0.21 | 0.090 |
